Here are results for 14 compounds from US9873680B2 (Gilead Sciences, Inc., priority 2014, dated 2018).

Where two headings read alike, the source gives them in different places.

One series has as its system HIV-IIIb. In words: Test A: Antiviral Assay in MT4 Cells. It is filed as cell-based, HIV-1. As to conditions: read-out: % inhibition at 0.2 μM (percent inhibition of virus-induced cell killing). Summed up:
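Readout was CellTiter-Glo luminescence after 10 min room-temperature lysis, taken 5 days after plating at 37 °C. The 2000 MT-4 cells per well, mixed 1 h beforehand with HIV-IIIb (m.o.i. 0.003), went straight onto the diluted compound.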

The nature of series [1]: Test B: Cytotoxicity Assay. Format: cell-based. As to conditions: human, uninfected MT-4 cells, CellTiter-Glo. The procedure: Test B: Cytotoxicity Assay Compound cytotoxicity and the corresponding CC50 values was determined using the same protocol as described in the antiviral assay (Test A) except that uninfected cells were used.
For orientation: ATP-based viability assays read luminescence as a measure of living cells.

The mark [2] stands for this setting: Human immunodeficiency virus 1, MT4, 120 h, 0.2 μM drug concentration, MT-4 cells infected with HIV-IIIb, 5 days, values normalized to 100%, average over time.
Where [3] appears, read: Human immunodeficiency virus 1, IIIB, MT4, 120 h.

As a reminder, the inhibition is the percentage by which the read-out fell short of the control. Broadly, the CC50 is the concentration that lowers cell viability or growth by half. For `Cn1nc(NS(C)(=O)=O)c2c(Cl)ccc(-c3ccc(C#CC4(C)CNCCO4)nc3[C@H](Cc3cc(F)cc(F)c3)NC(=O)Cn3nc(C(F)(F)F)c4c3C(F)(F)[C@@H]3C[C@H]43)c21` (stereo partly drawn) [Compound 76, N-((1S)-1-(3-(4-chloro-1-methyl-3-(methylsulfonamido)-1H-indazol-7-yl)-6-((2-methylmorpholin-2-yl)ethynyl)pyridin-2-yl)-2-(3,5-difluorophenyl)ethyl)-2-((3bS,4aR)-5,5-difluoro-3-(trifluoromethyl)-3b,4,4a,5-tetrahydro-1H-cyclopropa[3,4]cyclopenta[1,2-c]pyrazol-1-yl)acetamide], the inhibition at 0.2 µM in the series on HIV-IIIb (setting [2]) was 93%. This compound also returned a CC50 at 5 days in series [1] of 6.67 µM.
On the same counts, the results for `Cn1nc(NS(C)(=O)=O)c2c(Cl)ccc(-c3ccc(C#CC4(C)CNCCO4)nc3[C@H](Cc3cc(F)cc(F)c3)NC(=O)Cn3nc(C(F)F)c4c3C(F)(F)[C@@H]3C[C@H]43)c21` (stereo partly drawn) [Compound 77, N-((1S)-1-(3-(4-chloro-1-methyl-3-(methylsulfonamido)-1H-indazol-7-yl)-6-((2-methylmorpholin-2-yl)ethynyl)pyridin-2-yl)-2-(3,5-difluorophenyl)ethyl)-2-((3bS,4aR)-3-(difluoromethyl)-5,5-difluoro-3b,4,4a,5-tetrahydro-1H-cyclopropa[3,4]cyclopenta[1,2-c]pyrazol-1-yl)acetamide] are 90% and 7.7 µM.
On the same counts, the results for `Cn1cnc(C#Cc2ccc(-c3ccc(Cl)c4c(NS(C)(=O)=O)nn(C)c34)c([C@H](Cc3cc(F)cc(F)c3)NC(=O)Cn3nc(C(F)F)c4c3C(F)(F)[C@@H]3C[C@H]43)n2)c1` [Compound 78, N—((S)-1-(3-(4-chloro-1-methyl-3-(methylsulfonamido)-1H-indazol-7-yl)-6-((1-methyl-1H-imidazol-4-yl)ethynyl)pyridin-2-yl)-2-(3,5-difluorophenyl)ethyl)-2-((3bS,4aR)-3-(difluoromethyl)-5,5-difluoro-3b,4,4a,5-tetrahydro-1H-cyclopropa[3,4]cyclopenta[1,2-c]pyrazol-1-yl)acetamide] are 87% and above 36.6 µM.
On the same counts, the results for `Cn1nc(NS(C)(=O)=O)c2c(Cl)ccc(-c3ccc(C#CC(C)(C)n4ccnc4)nc3[C@H](Cc3cc(F)cc(F)c3)NC(=O)Cn3nc(C(F)(F)F)c4c3C(F)(F)[C@@H]3C[C@H]43)c21` [Compound 79B, N—((S)-1-(6-(3-(1H-imidazol-1-yl)-3-methylbut-1-yn-1-yl)-3-(4-chloro-1-methyl-3-(methylsulfonamido)-1H-indazol-7-yl)pyridin-2-yl)-2-(3,5-difluorophenyl)ethyl)-2-((3bS,4aR)-5,5-difluoro-3-(trifluoromethyl)-3b,4,4a,5-tetrahydro-1H-cyclopropa[3,4]cyclopenta[1,2-c]pyrazol-1-yl)acetamide] are 93% and 11.5 µM.
For `Cn1nc(NS(C)(=O)=O)c2c(Cl)ccc(-c3ccc(C#CC(C)(C)n4ccnc4)nc3[C@H](Cc3cc(F)cc(F)c3)NC(=O)Cn3nc(C(F)F)c4c3C(F)(F)[C@@H]3C[C@H]43)c21` [Compound 80, N—((S)-1-(6-(3-(1H-imidazol-1-yl)-3-methylbut-1-yn-1-yl)-3-(4-chloro-1-methyl-3-(methylsulfonamido)-1H-indazol-7-yl)pyridin-2-yl)-2-(3,5-difluorophenyl)ethyl)-2-((3bS,4aR)-3-(difluoromethyl)-5,5-difluoro-3b,4,4a,5-tetrahydro-1H-cyclopropa[3,4]cyclopenta[1,2-c]pyrazol-1-yl)acetamide], in the series with HIV-IIIb (setting [2]), the inhibition at 0.2 µM was 89%. This compound returned a CC50 at 5 days in series [1] of 20.9 µM.
Take `Cn1nc(NS(C)(=O)=O)c2c(Cl)ccc(-c3ccc(C#CC4(C)OCCn5ccnc54)nc3[C@H](Cc3cc(F)cc(F)c3)NC(=O)Cn3nc(C(F)(F)F)c4c3C(F)(F)[C@@H]3C[C@H]43)c21` (stereo partly shown) [Compound 81E]: the inhibition at 0.2 µM in the series on HIV-IIIb (setting [3]) was determined as 87%. The compound further registered a CC50 at 5 days in series [1] above 57 µM.
For `Cn1nc(NS(C)(=O)=O)c2c(Cl)ccc(-c3ccc(C#CC4(C)OCCn5ccnc54)nc3[C@H](Cc3cc(F)cc(F)c3)NC(=O)Cn3nc(C(F)F)c4c3C(F)(F)[C@@H]3C[C@H]43)c21` (stereo partly drawn) [Compound 82, N-((1S)-1-(3-(4-chloro-1-methyl-3-(methylsulfonamido)-1H-indazol-7-yl)-6-((8-methyl-6,8-dihydro-5H-imidazo[2,1-c][1,4]oxazin-8-yl)ethynyl)pyridin-2-yl)-2-(3,5-difluorophenyl)ethyl)-2-((3bS,4aR)-3-(difluoromethyl)-5,5-difluoro-3b,4,4a,5-tetrahydro-1H-cyclopropa[3,4]cyclopenta[1,2-c]pyrazol-1-yl)acetamide], in the series with HIV-IIIb (setting [2]), the inhibition at 0.2 µM was found to be 90%. The compound further registered a CC50 at 5 days in series [1] of 29.6 µM.
On to `Cn1nc(NS(C)(=O)=O)c2c(Cl)ccc(-c3ccc(C#C[C@]4(C)CNCCO4)nc3[C@H](Cc3cc(F)cc(F)c3)NC(=O)Cn3nc(C(F)(F)F)c4c3C(F)(F)[C@@H]3C[C@H]43)c21` [Compound 83G, N—((S)-1-(3-(4-chloro-1-methyl-3-(methylsulfonamido)-1H-indazol-7-yl)-6-(((R)-2-methylmorpholin-2-yl)ethynyl)pyridin-2-yl)-2-(3,5-difluorophenyl)ethyl)-2-((3bS,4aR)-5,5-difluoro-3-(trifluoromethyl)-3b,4,4a,5-tetrahydro-1H-cyclopropa[3,4]cyclopenta[1,2-c]pyrazol-1-yl)acetamide], for which the inhibition at 0.2 µM in the series with HIV-IIIb (setting [2]) turned out to be 90%. This compound displayed a CC50 at 5 days in series [1] of 6.57 µM.
In the case of `Cn1nc(NS(C)(=O)=O)c2c(Cl)ccc(-c3ccc(C#C[C@]4(C)CNCCO4)nc3[C@H](Cc3cc(F)cc(F)c3)NC(=O)Cn3nc(C(F)F)c4c3C(F)(F)[C@@H]3C[C@H]43)c21` [Compound 84, N—((S)-1-(3-(4-chloro-1-methyl-3-(methylsulfonamido)-1H-indazol-7-yl)-6-(((R)-2-methylmorpholin-2-yl)ethynyl)pyridin-2-yl)-2-(3,5-difluorophenyl)ethyl)-2-((3bS,4aR)-3-(difluoromethyl)-5,5-difluoro-3b,4,4a,5-tetrahydro-1H-cyclopropa[3,4]cyclopenta[1,2-c]pyrazol-1-yl)acetamide], in the series on HIV-IIIb (setting [2]), the inhibition at 0.2 µM was 88%. The CC50 at 5 days in series [1] amounted to 6.9 µM.
Consider `CCN1CCO[C@](C)(C#Cc2ccc(-c3ccc(Cl)c4c(NS(C)(=O)=O)nn(C)c34)c([C@H](Cc3cc(F)cc(F)c3)NC(=O)Cn3nc(C(F)F)c4c3C(F)(F)[C@@H]3C[C@H]43)n2)C1` [Compound 85, N—((S)-1-(3-(4-chloro-1-methyl-3-(methylsulfonamido)-1H-indazol-7-yl)-6-(((R)-4-ethyl-2-methylmorpholin-2-yl)ethynyl)pyridin-2-yl)-2-(3,5-difluorophenyl)ethyl)-2-((3bS,4aR)-3-(difluoromethyl)-5,5-difluoro-3b,4,4a,5-tetrahydro-1-cyclopropa[3,4]cyclopenta[1,2-c]pyrazol-1-yl)acetamide], for which the inhibition at 0.2 µM in the series on HIV-IIIb (setting [3]) is 100%. Besides, in series [1], half-maximal cytotoxicity (CC50 at 5 days) was put at 28.6 µM.
`CC(=O)N1CCO[C@](C)(C#Cc2ccc(-c3ccc(Cl)c4c(NS(C)(=O)=O)nn(C)c34)c([C@H](Cc3cc(F)cc(F)c3)NC(=O)Cn3nc(C(F)F)c4c3C(F)(F)[C@@H]3C[C@H]43)n2)C1` [Compound 86, N—((S)-1-(6-(((R)-4-acetyl-2-methylmorpholin-2-yl)ethynyl)-3-(4-chloro-1-methyl-3-(methylsulfonamido)-1H-indazol-7-yl)pyridin-2-yl)-2-(3,5-difluorophenyl)ethyl)-2-((3bS,4aR)-3-(difluoromethyl)-5,5-difluoro-3b,4,4a,5-tetrahydro-1H-cyclopropa[3,4]cyclopenta[1,2-c]pyrazol-1-yl)acetamide]: the inhibition at 0.2 µM in the series with HIV-IIIb (setting [3]) amounted to 93%. In series [1], this compound showed a 50% cytotoxic concentration (CC50) at 5 days of 21.4 µM.
`CC(C)N1CCO[C@](C)(C#Cc2ccc(-c3ccc(Cl)c4c(NS(C)(=O)=O)nn(C)c34)c([C@H](Cc3cc(F)cc(F)c3)NC(=O)Cn3nc(C(F)F)c4c3C(F)(F)[C@@H]3C[C@H]43)n2)C1` [Compound 87, N—((S)-1-(3-(4-chloro-1-methyl-3-(methylsulfonamido)-1H-indazol-7-yl)-6-(((R)-4-isopropyl-2-methylmorpholin-2-yl)ethynyl)pyridin-2-yl)-2-(3,5-difluorophenyl)ethyl)-2-((3bS,4aR)-3-(difluoromethyl)-5,5-difluoro-3b,4,4a,5-tetrahydro-1H-cyclopropa[3,4]cyclopenta[1,2-c]pyrazol-1-yl)acetamide]: the inhibition at 0.2 µM in the series with HIV-IIIb (setting [2]) came to 100%. This compound gave a CC50 at 5 days in series [1] of 19.5 µM.
On the same counts, the results for `Cn1nc(NS(C)(=O)=O)c2c(Cl)ccc(-c3ccc(C#C[C@]4(C)CNCCO4)nc3[C@H](Cc3cc(F)cc(F)c3)NC(=O)Cn3nc(C#N)c4c3C(F)(F)[C@@H]3C[C@H]43)c21` [Compound 88L, N—((S)-1-(3-(4-chloro-1-methyl-3-(methylsulfonamido)-1H-indazol-7-yl)-6-(((R)-2-methylmorpholin-2-yl)ethynyl)pyridin-2-yl)-2-(3,5-difluorophenyl)ethyl)-2-((3bS,4aR)-3-cyano-5,5-difluoro-3b,4,4a,5-tetrahydro-1H-cyclopropa[3,4]cyclopenta[1,2-c]pyrazol-1-yl)acetamide] are 97% and 5.79 µM.
As for `Cc1nccn1C(C)(C)C#Cc1ccc(-c2ccc(Cl)c3c(NS(C)(=O)=O)nn(C)c23)c([C@H](Cc2cc(F)cc(F)c2)NC(=O)Cn2nc(C(F)F)c3c2C(F)(F)[C@@H]2C[C@H]32)n1` [Compound 89B], the inhibition at 0.2 µM in the series on HIV-IIIb (setting [2]) is 87%. The same compound showed a CC50 at 5 days in series [1] of 8.31 µM.
